Test results published in paper PMC6934184, “Selective DNA-PKcs inhibition extends the therapeutic index of localized radiotherapy and chemotherapy” (The Journal of Clinical Investigation, 2019).

Target: T1, CDK2/cyclin A (Homo sapiens, UniProt P24941)
T1 construct: purchased Thermo Fisher Scientific (Life Technologies) SelectScreen
Assay: SelectScreen Z'LYTE
Assay type: biochemical
Procedure, shortened: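 SelectScreen broad panel; activity (Z'LYTE, Adapta) plus binding formats. ATP: Km app for CSF1R Z'LYTE; 10 for CAMK1 Adapta. Readout = % per kinase.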

## CN(C(=O)CN1CCOCC1)c1ccc2sc3c(-c4cccc5c(=O)cc(N6CC7CCC(C6)O7)oc45)cccc3c2c1 [NU5455]
  inhibition at 1 µM: 2.7%
